Active and inactive are the calls of the source.
Tests used:
[1] = target: T1, Heat shock factor protein 1 (Mus musculus, UniProt P38532); assay: enhancement of HSF1-driven luciferase signal – cell-based, NIH3T3, luminescence, dose retest, confirmation (AID 435004); format: functional;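 further: stress induced by proteasome inhibitor MG132 added 30 min after compound; luciferase reporter driven by HSF1 response element in NIH3T3 cells; actives raise luminescence as potentiators of the MG132 stress response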
T1 sequence (P38532 whole entry): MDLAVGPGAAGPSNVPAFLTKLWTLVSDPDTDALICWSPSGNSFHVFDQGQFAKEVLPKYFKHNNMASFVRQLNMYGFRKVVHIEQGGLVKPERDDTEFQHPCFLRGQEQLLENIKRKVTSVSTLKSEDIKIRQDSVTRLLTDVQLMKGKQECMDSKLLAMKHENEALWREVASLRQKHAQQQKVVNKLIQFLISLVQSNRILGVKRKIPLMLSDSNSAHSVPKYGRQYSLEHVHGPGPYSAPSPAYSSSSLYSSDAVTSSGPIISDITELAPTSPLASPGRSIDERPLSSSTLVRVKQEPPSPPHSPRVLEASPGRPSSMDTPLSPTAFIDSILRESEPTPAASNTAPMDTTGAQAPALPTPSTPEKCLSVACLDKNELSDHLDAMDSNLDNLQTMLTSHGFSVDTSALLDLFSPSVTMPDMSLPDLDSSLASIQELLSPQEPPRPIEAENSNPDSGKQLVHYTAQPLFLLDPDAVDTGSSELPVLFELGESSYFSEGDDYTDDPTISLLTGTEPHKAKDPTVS

[2] = target: T2, Carboxy-terminal domain RNA polymerase II polypeptide A small phosphatase 1 (Homo sapiens, UniProt Q9GZU7); assay: CTDSP1 inhibitors, concentration-response, biochemical, absorbance readout, ultra-high-throughput screen actives (AID 540297); format: functional
T2 sequence (Q9GZU7 whole entry): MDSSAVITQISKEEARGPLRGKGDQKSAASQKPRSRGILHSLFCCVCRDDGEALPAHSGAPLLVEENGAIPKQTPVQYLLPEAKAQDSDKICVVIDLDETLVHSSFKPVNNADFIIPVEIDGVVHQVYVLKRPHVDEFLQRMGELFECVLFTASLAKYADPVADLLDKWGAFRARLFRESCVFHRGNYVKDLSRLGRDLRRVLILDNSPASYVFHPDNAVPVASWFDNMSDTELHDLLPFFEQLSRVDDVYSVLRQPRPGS

Cytochrome P450 2C19 = Cytochrome P450 2C19 (Homo sapiens, UniProt P33261); assay: Cytochrome panel assay with activity outcomes. Panel member name: p450-cyp2c19 Compounds with AC50 equal or less than 10 uM are considered active; format: functional; settings: read-out: AC50
Cytochrome P450 1A2 = target: T3, Cytochrome P450 1A2 (Homo sapiens, UniProt P05177);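 further: PubChem cytochrome P450 panel assay, CYP1A2 panel member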
T3 sequence (P05177 whole entry): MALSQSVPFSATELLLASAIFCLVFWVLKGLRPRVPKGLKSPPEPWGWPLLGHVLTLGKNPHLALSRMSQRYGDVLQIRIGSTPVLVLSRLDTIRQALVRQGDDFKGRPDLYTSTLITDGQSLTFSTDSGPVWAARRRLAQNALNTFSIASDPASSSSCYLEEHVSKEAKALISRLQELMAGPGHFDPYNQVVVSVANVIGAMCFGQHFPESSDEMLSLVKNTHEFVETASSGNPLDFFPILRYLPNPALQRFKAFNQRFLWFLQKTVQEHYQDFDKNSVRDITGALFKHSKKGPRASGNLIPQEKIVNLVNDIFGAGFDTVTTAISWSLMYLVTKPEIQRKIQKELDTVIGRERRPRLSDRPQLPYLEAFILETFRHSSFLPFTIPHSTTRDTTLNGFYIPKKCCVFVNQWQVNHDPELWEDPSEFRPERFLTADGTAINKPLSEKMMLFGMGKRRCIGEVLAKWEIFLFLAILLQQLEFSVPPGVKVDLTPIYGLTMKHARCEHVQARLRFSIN

Cytochrome P450 3A4 = Cytochrome P450 3A4 (Homo sapiens, UniProt P08684);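 further: CYP3A4 tested as one member of a cytochrome P450 panel screen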
H9c2 = assay: cells; format: functional, cell-based; settings: Rattus norvegicus, H9c2, Myocardium;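 further: confirmatory concentration-response retest of ultra-high-throughput screening hits for modulation of myocardial damage; cell death induced by hydrogen peroxide oxidative stress; compound pretreatment for 60 min then peroxide exposure for 2 h; potency is for protecting the cells against peroxide damage rather than for killing them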
Fatty acid synthase [3] = target: T4, Fatty acid synthase (Homo sapiens, UniProt P49327); assay: inhibition of human FAS-TE enzyme activity – biochemical, kinetic fluorescence intensity, dose response (AID 624326); format: functional;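 further: rate of fluorescence rise from hydrolysis of a fluorogenic O-methyl fluorescein ester substrate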
Fatty acid synthase [4] = target: T4, Fatty acid synthase; assay: inhibition of human FAS-TE enzyme activity – biochemical, endpoint fluorescence intensity, uHTS hits, dose response (AID 624327); format: functional;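 further: fluorescence from hydrolysis of an O-methyl fluorescein acyl ester substrate by the enzyme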
H4 = assay: Luminescence Cell-Based Dose Response HTS to Identify Activators of 5'UTR Stem-Loop Driven Prion Protein mRNA Translation in H4 Neuroglioblastoma Cells. [Related pubchem assays: 1829 (Project Summary), 1814 (Primary HTS)]; format: functional; settings: Homo sapiens
[5] = reduction of Shn3 3'UTR-driven luciferase in osteoblasts – cell-based, Clone20 osteoblasts, firefly luciferase, cherry-picked, dose response (AID 624132); format: functional;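 further: firefly luciferase luminescence from reporter carrying the Shn3 3'UTR in osteoblasts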
[6] = non-specific 3'UTR reporter inhibition in Clone20-Shn3RL – cell-based, Renilla luciferase, cherry-picked, counter-screen for Shn3 inhibitor project, dose response (AID 624133); format: functional
Cytochrome P450 2C9 = Cytochrome P450 2C9 (Homo sapiens, UniProt P11712)
[7] = loss of viability in HepG2 cells – cell-based, CellTiter-Glo, cherry-picked, cytotoxicity control for Shn3 inhibitor project, dose response (AID 624134); format: functional
INS1 = assay: INS-1E survival protection against cytokine death – cell-based, luminescence, retest, dose response (AID 449756); format: functional; settings: Rattus norvegicus;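 further: cell death triggered by IL-1 beta plus TNF-alpha plus IFN-gamma mixture; protective hits raise ATP signal compared with cytokine alone wells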
[8] = target: T1, Heat shock factor protein 1; assay: decrease of HSF1-responsive luciferase luminescence – cell-based, NIH3T3, dose retest, confirmation (AID 2382); format: functional;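 further: NIH3T3 fibroblasts with HSF1-driven luciferase reporter stressed by proteasome inhibitor MG132; luminescence from HSF1-driven luciferase expression after 8 hours of MG132 stress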
[9] = Trypanosoma cruzi growth suppression in host cells – NIH3T3 host cells, beta-gal luminescence, confirmation (AID 2044); format: functional, cell-based;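 further: intracellular parasites grown in NIH/3T3 mouse fibroblasts as host cells; luminescent beta-galactosidase reporter signal from transgenic T. cruzi replicating inside host cells; inhibitors lower the luminescence signal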
[10] = microbe, parasite or virus in culture; format: functional; settings: Mycobacterium tuberculosis
[11] = NIH3T3 cell viability loss – ATP luminescence, mouse fibroblasts, counter-screen, dose response (AID 2010); format: functional, cell-based;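 further: cells exposed to compound for about 90 hours before reading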
cells = format: functional
[12] = Vero E6 cell cytotoxicity, dose response, cytotoxicity control for non-replicating M. tuberculosis project, secondary assay (AID 492998); format: functional, VeroE6; settings: Vero C1008
[13] = THP-1 cell cytotoxicity, dose response, cytotoxicity control for non-replicating M. tuberculosis project (AID 489025); format: functional
[14] = target: T5, Zinc finger protein mex-5 (Caenorhabditis elegans, UniProt Q9XUB2); assay: potency of MEX-5 RNA-binding blockers – biochemical, C. elegans, fluorescence polarization, dose response (AID 1960)
T5 sequence (Q9XUB2 whole entry): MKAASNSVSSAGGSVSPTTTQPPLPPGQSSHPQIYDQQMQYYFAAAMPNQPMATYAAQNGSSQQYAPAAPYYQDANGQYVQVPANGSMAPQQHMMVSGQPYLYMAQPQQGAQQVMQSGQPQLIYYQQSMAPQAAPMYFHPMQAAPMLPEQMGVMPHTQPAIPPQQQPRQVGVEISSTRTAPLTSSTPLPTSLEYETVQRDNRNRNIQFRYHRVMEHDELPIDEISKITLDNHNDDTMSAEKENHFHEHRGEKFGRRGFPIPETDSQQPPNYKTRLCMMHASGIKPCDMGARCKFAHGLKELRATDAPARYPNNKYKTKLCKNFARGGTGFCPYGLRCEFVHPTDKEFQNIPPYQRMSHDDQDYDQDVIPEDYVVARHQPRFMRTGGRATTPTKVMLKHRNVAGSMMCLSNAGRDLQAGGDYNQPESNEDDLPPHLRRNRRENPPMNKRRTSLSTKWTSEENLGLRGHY

[15] = target: T6, RNA-binding protein pos-1 (Caenorhabditis elegans, UniProt G5EF15); assay: disruptors of C. elegans POS-1 RNA interaction – biochemical, fluorescence polarization, dose response (AID 1964);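 further: purified POS-1 fused to maltose binding protein made in E. coli; potency of compounds blocking POS-1 binding to fluorescent RNA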
T6 sequence (G5EF15 whole entry): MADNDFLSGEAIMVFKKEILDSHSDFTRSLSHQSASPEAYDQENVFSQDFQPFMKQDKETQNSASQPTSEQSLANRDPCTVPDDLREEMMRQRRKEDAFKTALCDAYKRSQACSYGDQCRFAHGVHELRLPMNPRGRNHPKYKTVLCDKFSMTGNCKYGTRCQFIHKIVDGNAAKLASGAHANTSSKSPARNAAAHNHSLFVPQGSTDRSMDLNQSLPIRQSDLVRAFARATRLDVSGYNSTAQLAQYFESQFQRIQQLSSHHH

[16] = HIV-1 AD8 envelope cell-cell fusion blockers – cherry-pick, dose response (AID 652062); format: functional, cell-based;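 further: luciferase signal from cell-cell fusion driven by HIV-1 clade B AD8 Env; potency is for inhibitors of fusion seen as a drop in luminescence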

Chain of Cytochrome P450 3A4 (P08684 whole entry): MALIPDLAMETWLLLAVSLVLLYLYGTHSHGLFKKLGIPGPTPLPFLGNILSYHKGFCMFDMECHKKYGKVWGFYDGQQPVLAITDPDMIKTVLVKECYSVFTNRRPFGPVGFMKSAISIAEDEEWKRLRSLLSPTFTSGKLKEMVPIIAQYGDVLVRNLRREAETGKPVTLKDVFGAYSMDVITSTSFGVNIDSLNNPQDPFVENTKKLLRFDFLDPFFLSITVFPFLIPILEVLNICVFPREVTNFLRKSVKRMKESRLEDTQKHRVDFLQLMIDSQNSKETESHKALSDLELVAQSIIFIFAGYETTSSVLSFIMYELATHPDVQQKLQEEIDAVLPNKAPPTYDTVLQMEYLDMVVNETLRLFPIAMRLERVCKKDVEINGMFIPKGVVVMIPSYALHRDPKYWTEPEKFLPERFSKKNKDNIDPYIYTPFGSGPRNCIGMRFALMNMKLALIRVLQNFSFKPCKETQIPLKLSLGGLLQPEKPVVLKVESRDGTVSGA
T4 sequence (P49327 whole entry): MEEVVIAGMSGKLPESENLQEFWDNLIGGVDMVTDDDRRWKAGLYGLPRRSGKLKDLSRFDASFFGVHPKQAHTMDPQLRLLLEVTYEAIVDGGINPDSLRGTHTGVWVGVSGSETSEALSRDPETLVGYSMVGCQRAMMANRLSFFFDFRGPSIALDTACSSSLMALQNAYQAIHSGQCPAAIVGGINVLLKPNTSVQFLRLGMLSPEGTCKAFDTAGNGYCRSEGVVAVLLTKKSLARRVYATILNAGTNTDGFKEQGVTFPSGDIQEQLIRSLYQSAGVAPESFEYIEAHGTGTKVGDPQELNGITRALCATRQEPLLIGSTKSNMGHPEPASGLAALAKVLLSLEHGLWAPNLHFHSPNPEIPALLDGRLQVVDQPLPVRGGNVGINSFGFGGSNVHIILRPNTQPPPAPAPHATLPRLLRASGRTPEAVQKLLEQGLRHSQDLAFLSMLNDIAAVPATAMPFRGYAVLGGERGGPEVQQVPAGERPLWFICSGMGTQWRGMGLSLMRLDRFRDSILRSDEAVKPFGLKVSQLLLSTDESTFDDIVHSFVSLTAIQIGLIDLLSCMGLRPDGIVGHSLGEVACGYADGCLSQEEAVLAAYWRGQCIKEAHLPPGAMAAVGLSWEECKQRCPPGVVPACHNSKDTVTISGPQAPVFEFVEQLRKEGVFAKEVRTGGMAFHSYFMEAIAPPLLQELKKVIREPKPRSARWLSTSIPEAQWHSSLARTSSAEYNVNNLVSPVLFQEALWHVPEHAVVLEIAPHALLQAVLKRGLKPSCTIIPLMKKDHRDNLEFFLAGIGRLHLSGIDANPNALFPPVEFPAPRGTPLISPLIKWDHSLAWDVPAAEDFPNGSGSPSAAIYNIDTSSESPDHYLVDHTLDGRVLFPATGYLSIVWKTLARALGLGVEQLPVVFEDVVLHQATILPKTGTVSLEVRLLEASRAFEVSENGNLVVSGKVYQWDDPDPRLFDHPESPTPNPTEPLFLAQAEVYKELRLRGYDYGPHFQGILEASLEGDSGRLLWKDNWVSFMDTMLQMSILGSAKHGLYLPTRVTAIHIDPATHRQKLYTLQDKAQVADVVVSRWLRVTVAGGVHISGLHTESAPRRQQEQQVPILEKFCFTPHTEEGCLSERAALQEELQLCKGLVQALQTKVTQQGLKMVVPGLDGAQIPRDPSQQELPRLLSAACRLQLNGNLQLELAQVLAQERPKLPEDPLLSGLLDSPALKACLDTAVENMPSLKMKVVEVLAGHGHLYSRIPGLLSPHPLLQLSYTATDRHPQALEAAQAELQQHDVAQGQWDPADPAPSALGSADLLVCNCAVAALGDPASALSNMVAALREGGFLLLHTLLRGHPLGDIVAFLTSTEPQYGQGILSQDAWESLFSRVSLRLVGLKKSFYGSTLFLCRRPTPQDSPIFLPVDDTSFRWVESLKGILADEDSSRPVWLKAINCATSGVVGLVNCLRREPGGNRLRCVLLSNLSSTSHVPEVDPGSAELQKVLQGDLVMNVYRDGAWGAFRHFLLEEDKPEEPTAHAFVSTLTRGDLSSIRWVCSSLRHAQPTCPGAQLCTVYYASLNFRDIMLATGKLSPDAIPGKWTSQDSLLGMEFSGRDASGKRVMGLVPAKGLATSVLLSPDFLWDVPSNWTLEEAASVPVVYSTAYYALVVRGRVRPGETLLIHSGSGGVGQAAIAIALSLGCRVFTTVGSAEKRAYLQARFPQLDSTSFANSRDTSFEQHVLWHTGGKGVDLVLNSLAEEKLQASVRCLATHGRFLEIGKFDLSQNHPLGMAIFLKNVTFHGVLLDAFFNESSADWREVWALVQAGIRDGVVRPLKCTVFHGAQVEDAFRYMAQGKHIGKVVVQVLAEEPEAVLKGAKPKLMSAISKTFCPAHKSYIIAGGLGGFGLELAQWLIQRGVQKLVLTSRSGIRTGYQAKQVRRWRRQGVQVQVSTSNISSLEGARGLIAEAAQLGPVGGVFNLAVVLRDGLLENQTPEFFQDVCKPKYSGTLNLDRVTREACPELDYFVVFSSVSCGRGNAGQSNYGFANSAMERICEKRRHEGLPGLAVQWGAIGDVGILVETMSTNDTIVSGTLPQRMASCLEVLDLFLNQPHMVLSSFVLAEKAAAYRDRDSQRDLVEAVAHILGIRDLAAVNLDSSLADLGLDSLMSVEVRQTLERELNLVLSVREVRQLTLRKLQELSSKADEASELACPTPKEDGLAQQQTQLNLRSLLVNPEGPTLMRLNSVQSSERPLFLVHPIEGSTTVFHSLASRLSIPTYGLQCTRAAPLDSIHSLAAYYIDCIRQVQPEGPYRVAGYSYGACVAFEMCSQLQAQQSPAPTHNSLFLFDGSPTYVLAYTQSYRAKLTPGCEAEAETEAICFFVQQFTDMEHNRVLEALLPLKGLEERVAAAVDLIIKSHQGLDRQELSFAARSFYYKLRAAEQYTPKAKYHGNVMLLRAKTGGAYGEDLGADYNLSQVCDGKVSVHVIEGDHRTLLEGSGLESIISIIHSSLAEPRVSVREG
Chain of Cytochrome P450 2C9 (P11712 whole entry): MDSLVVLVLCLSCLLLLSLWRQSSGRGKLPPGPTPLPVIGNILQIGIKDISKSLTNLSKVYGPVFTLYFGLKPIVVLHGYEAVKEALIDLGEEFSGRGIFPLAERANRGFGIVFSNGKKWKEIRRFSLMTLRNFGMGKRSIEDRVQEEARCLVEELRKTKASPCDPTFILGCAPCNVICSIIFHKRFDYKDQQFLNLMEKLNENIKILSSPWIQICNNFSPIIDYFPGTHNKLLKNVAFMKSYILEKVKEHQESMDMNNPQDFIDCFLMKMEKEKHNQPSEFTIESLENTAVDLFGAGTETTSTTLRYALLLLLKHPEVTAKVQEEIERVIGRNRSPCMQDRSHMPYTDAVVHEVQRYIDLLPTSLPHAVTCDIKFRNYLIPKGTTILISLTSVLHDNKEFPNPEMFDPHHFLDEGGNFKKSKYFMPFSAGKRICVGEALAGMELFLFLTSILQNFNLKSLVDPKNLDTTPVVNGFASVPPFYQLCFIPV
Chain of Cytochrome P450 2C19 (P33261 whole entry): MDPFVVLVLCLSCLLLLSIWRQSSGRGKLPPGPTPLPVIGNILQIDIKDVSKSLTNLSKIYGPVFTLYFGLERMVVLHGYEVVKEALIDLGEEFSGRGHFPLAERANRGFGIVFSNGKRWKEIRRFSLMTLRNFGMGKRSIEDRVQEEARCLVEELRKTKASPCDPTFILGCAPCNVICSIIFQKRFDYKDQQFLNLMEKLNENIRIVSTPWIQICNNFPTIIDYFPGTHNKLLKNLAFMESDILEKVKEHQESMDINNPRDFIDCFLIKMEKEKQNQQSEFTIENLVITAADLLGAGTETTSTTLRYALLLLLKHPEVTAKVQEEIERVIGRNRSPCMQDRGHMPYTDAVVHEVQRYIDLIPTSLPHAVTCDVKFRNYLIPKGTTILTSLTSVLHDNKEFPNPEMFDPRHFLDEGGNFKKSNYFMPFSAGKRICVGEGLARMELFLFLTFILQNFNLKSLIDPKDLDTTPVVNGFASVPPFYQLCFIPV

CCOc1ccc2nc(COC(=O)c3cccc([N+](=O)[O-])c3)c(C(C)=O)[n+]([O-])c2c1
EC50 [1]: > 260 µM (inactive)

Cn1c(NN)nc2c1c(=O)n(Cc1ccccc1)c(=O)n2C
IC50 [2]: 25.2 µM (active)

O=C(Nc1ccccc1)N1CCC2(CC1)CCN(C(=O)c1ccco1)CC2
AC50 (Cytochrome P450 2C19): 39.8 µM (inconclusive) | AC50 (Cytochrome P450 1A2): 10 µM (inconclusive) | AC50 (Cytochrome P450 3A4): inconclusive

CNC(=O)c1cccc(NC(=O)c2cc(-c3ccccc3)nc3c2cnn3C(C)C)c1
IC50 (H9c2): > 79 µM (inactive)

O=C(NCC(=O)N(Cc1cccs1)C(C(=O)NC1CCCCC1)c1ccco1)c1cccs1 (stereo not drawn)
IC50 (H9c2): 8.09 µM (active)

O=C(Cn1cc(C(=O)C2CC2)c2ccccc21)NCc1ccc2c(c1)OCO2
IC50 (Fatty acid synthase [3]): 8.36 µM (active) | IC50 (Fatty acid synthase [4]): 14.3 µM (active)

O=[N+]([O-])c1cccn2cc(-c3ccc(Br)cc3)nc12
EC50 (H4): > 120 µM (not active) | IC50 [2]: 9.74 µM (active)

COc1ccc(Nc2nc(N3CCCCC3)c3ccccc3n2)cc1
AC50 [5]: 2.11 µM (active) | AC50 [6]: 6.45 µM (active) | AC50 (Cytochrome P450 2C9): 17.8 µM (inconclusive) | AC50 [7]: 36.5 µM (active) | AC50 (Cytochrome P450 3A4): inconclusive | AC50 (INS1): 4.63 µM (active)

O=C(NC1CCCCC1)c1cnn2c(C(F)(F)F)cc(-c3ccco3)nc12
EC50 [1]: > 260 µM (inactive)

COc1ccccc1OCCSc1nc(O)c2ccccc2n1
IC50 (H9c2): 14.4 µM (active)

COc1cccc(OC)c1C(=O)Nc1ccc(Br)c(C(=O)c2ccccc2)c1
IC50 (H9c2): 31.1 µM (inactive)

COc1ccc(-c2cc(C(F)F)n3ncc(C(=O)Nc4ccc(C(=O)N5CCOCC5)cc4)c3n2)cc1
IC50 (H9c2): > 79 µM (inactive)

COc1ccc([C@@H]2[C@@H]3C(=O)N(C(C)(C)C)C(=O)[C@@H]3[C@]3(Cc4ccccc4)C(=O)N(c4cccc(Br)c4)C(=O)N23)cc1
IC50 (Fatty acid synthase [3]): 13.7 µM (active) | IC50 (Fatty acid synthase [4]): 21.5 µM (inactive)

c1ccn(-c2ccc(N3CCOCC3)cc2)c1
EC50 [8]: > 195 µM (not active) | AC50 (Cytochrome P450 3A4): inconclusive

COc1cccc(NC(=O)COC(=O)c2ccc(S(=O)(=O)NCc3ccco3)cc2)c1
IC50 [2]: 7.96 µM (active)

O=C(Oc1ccccc1)N1CCC2(CC1)CCN(c1ccccn1)CC2
AC50 (Cytochrome P450 2C19): 20 µM (inconclusive) | AC50 (Cytochrome P450 2C9): 31.6 µM (inconclusive) | AC50 (Cytochrome P450 3A4): inconclusive

Cc1c(Cl)cccc1NC(=O)CN1CCC(C(O)(c2ccccc2)c2ccccc2)CC1
EC50 [9]: 2.33 µM (active) | AC50 (Cytochrome P450 3A4): inconclusive | CC50 [10]: > 40 µM (active) | EC50 [11]: > 30 µM (not active)

O=[N+]([O-])c1cccc(NC(S)=NCCc2ccccc2)c1
IC50 (Fatty acid synthase [3]): 9.04 µM (active) | IC50 (Fatty acid synthase [4]): 10.1 µM (active)

COc1cc2c(C(=O)NCc3ccccn3)cn(CC(C)C)c(=O)c2cc1OC
IC50 (H9c2): > 79 µM (inactive)

Cc1cc(Br)ccc1OCC(=O)NNC(=O)c1cnccn1
IC50 (cells): 8.2 µM (active) | CC50 [12]: 17.8 µM (active) | CC50 [13]: > 40 µM (active)

O=C(COc1ccc([N+](=O)[O-])cc1)N1CCc2ccccc2C1
IC50 (Fatty acid synthase [3]): 3.46 µM (active) | IC50 (Fatty acid synthase [4]): 6.92 µM (active)

CCN1C(=O)[C@H]2[C@H]3CN=C(SCC4CC4)N3[C@@](Cc3ccccc3)(C(=O)OC)[C@H]2C1=O
IC50 [2]: 12.1 µM (active)

CNc1nc(SC(C)C(=O)Nc2ccc(Cl)c(Cl)c2)nc(N2CCOCC2)n1 (stereo not drawn)
EC50 [1]: > 260 µM (inactive)

COCOc1cc(O)c(C(=O)/C=C/c2ccccc2)c(OCOC)c1
EC50 [1]: 22.1 µM (active)

Cc1nc2ncnn2c(C)c1CCC(=O)N1CCN(C(=O)c2ccco2)CC1
AC50 (Cytochrome P450 3A4): inconclusive

CC(C)(C)NC(=O)CC1C[C@H](C(=O)N2CCOCC2)[C@@]2(CCC3CCCC3)c3[nH]c4ccccc4c3CCN2C1=O (stereo partly drawn)
IC50 (Fatty acid synthase [3]): 4.15 µM (active) | IC50 (Fatty acid synthase [4]): 2.31 µM (active)

O=C(O)/C(=C/c1ccc(Cl)c([N+](=O)[O-])c1)c1ccc(S(=O)(=O)N2CCCCC2)s1
IC50 (Fatty acid synthase [3]): 12.6 µM (active) | IC50 (Fatty acid synthase [4]): 15.4 µM (active)

Nc1c(C(=O)N/N=C/c2cccnc2)oc2nc(-c3ccccc3)cc(-c3ccco3)c12
IC50 (H9c2): > 79 µM (inactive) | EC50 [14]: > 300 µM (not active) | EC50 [15]: > 300 µM (not active)

O=C(C[C@@H]1C[C@@H]2c3cc(NS(=O)(=O)c4ccc(F)cc4)ccc3O[C@@H]2[C@H](CO)O1)NCc1ccccc1F
AC50 [16]: 1.75 µM (active)
